Test results reported in patent US6423853B1, “Continuous ozonolysis of cycloalkenes into ozonides” (E. I. du Pont de Nemours & Comp., priority 2001, dated 2002).

Columns and labels:
[1] = disclosed in Maggiolo patent; cited from earlier work
[2] = solubility in propionic acid; details: using cyclododecene in the present process
Procedure: A reactor system consisting of a jacketed 1 inch, 10 tray glass Oldershaw column, 250 cc bottom receiver, feed pump, and recycle pump were assembled. The initial feed material consisted of 102 g. of propionic acid solvent and 18 g. of cyclododecene. 120 g. of the initial feed material were charged into the reactor system. The temperature of the jacket on the Oldershaw column was adjusted to 20° C. and a recycle flow of 50 cc/min. was established using the recycle pump. An ClearWater Tech modelM-1500 ozone generator was attached to the system. A carrier gas consisting of 20% oxygen in carbon dioxide was fed to the reactor at 2000 cc/min. The gas exit the ozone generator was measured to contain 0.80% ozone. […] At that point, the additional 18 g. of pure CDDM solution was fed to the top of the column at a rate of 00.15 cc/min. The balance between the ozone and the cyclododecene fed allowed an excess of ozone in the reactor off gas at all times.

For `C1=CCCCCCC1` [cyclooctene], the “solubility in isobutyric acid” value [1] is listed as 20%.
For `C1CCCCCC2OOC(CCCC1)O2` [ozonide, cyclododecene ozonide], the “ozonide solubility in propionic acid” value [2] was “about 27.5%”.
